Measured values reported in article PMC10413920, “Design, synthesis and in vitro biological studies of novel triazoles with potent and broad-spectrum antifungal activity” (Journal of Enzyme Inhibition and Medicinal Chemistry, 2023).
Converted amounts (≈) assume the structure as drawn.

Assays:
[1] = system: Cryptococcus neoformans 22-21; experiment: Broth microdilution MIC (CLSI M27-A3/M60); type: cell-based; conditions: 2221, MIC80 (≥80% growth inhibition), 30 °C, 48 h, read-out: MIC, C. neo 22-21
Description: (§1) According to the Clinical Laboratory Standards Institute (CLSI, M27-A3 and M60) protocols[10]^,[11], the target compounds were evaluated for their in vitro antifungal activity by the broth microdilution method. The fungi strains used in this study were obtained from the American Type Culture Collection (ATCC) and Changhai Hospital (Shanghai, China). […] Fluconazole (FCZ) and ketoconazole (KCZ) were used as positive controls.
(§2) All fungal strains used in this study were obtained from the American Type Culture Collection (ATCC) and Changhai Hospital (Shanghai, China). All strains were cultivated by shaking (200 rpm) at 30 °C in YEPD medium (1% yeast extract, 2% peptone, and 2% dextrose) to an exponential growth stage.
(§3) Fungal cells at the exponential growth stage were collected and resuspended in RPMI 1640 medium, then diluted to 1 × 10^3 cells/mL. The suspension of fungal cells was inoculated into 96-well plates. Antifungal compounds were serially added and diluted in a 2-fold series to a final concentration range of 64.0–0.125 µg/mL. RPMI 1640 medium with no fungal cells served as a blank control. The fungal suspensions containing DMSO and FCZ served as the negative control and the positive control, respectively. C. albicans, C. glabrata, C. parapsilosis, C. tropicalis, and C. auris cells were incubated at 30 °C for 24 h, C. neoformans and A. fumigatus cells were incubated at 30 °C for 48 h. The optical density (OD630) at 630 nm was measured by a spectrophotometer, which was used to calculate the MIC80 values of each compound.

[2] = system: Candida albicans SC5314; experiment: Broth microdilution MIC (CLSI M27-A3/M60); type: cell-based; conditions: MIC80 (≥80% growth inhibition), 30 °C, 24 h; for MIC: Candida albicans, SC5314, read-out: MIC, C. alb SC5314
Description: as §1, §2, §3

[3] = system: Candida glabrata 537; experiment: Broth microdilution MIC (CLSI M27-A3/M60); type: cell-based; conditions: MIC80 (≥80% growth inhibition), 30 °C, 24 h; for MIC: Nakaseomyces glabratus, 537, read-out: MIC, C. gla 537
Description: as §1, §2, §3

[4] = system: Candida parapsilosis 22-20; experiment: Broth microdilution MIC (CLSI M27-A3/M60); type: cell-based; conditions: Lodderomyces parapsilosis, 2220; MIC80 (≥80% growth inhibition), 30 °C, 24 h; read-out: MIC, C. par 22-20
Description: as §1, §2, §3

[5] = system: Aspergillus fumigatus 7544; experiment: Broth microdilution MIC (CLSI M27-A3/M60); type: cell-based; conditions: Aspergillus fumigatus, 7544; MIC80 (≥80% growth inhibition), 30 °C, 48 h; read-out: MIC, A. fum 7544
Description: as §1, §2, §3

[6] = system: Candida tropicalis 8915; experiment: Broth microdilution MIC (CLSI M27-A3/M60); type: cell-based; conditions: Candida tropicalis, 8915; MIC80 (≥80% growth inhibition), 30 °C, 24 h; read-out: MIC, C. tro 8915
Description: as §1, §2, §3

[7] = system: FCZ-resistant C. albicans 901; experiment: MIC against FCZ-resistant strains, microdilution; type: cell-based, Candida albicans; conditions: FCZ-resistant isolate, 30 °C, 24 h; for MIC: Candida albicans, read-out: MIC, C.alb 901
Description: (§4) The alarming impact of drug resistance amongst Candida spp. is an emerging problem globally. Rising rates of azole-resistant Candida spp. are associated with an increase in treatment failures. Candida auris is characterised by a high level of multi-drug resistance. It has been reported in more than 45 countries and has caused serious hospital outbreaks with crude mortality rates as high as 72%[13]^,[14].
as §2
as §3, with “The fungal suspensions containing DMSO and FCZ served as the negative control and the positive control, respectively.” left out

[8] = system: C. auris 918; experiment: MIC against FCZ-resistant strains, microdilution; type: cell-based, Candida auris; conditions: Candidozyma auris, FCZ-resistant isolate, 30 °C, 24 h
Description: as §4, §2
as §3, with “The fungal suspensions containing DMSO and FCZ served as the negative control and the positive control, respectively.” left out

[9] = system: C. auris 919; experiment: MIC against FCZ-resistant strains, microdilution; type: cell-based, Candida auris; conditions: Candidozyma auris, FCZ-resistant isolate, 30 °C, 24 h
Description: as §4, §2
as §3, with “The fungal suspensions containing DMSO and FCZ served as the negative control and the positive control, respectively.” left out

[10] = system: C. albicans SC5314; experiment: GC-MS analysis of sterol composition; type: cell-based, Candida albicans; conditions: 8 µg/mL, 8 h
Description: As the major fungal sterol, ergosterol accounted for 89.85% of the total sterols in the control group, zymosterol accounted for 8.80%, in addition to several other sterols. […] In contrast, the content of other sterols in the bypass pathway increased.
Overnight cultured C. albicans SC5314 fungal cells were collected and diluted to 5 × 10^6 cells/mL in YEPD medium. […] The fungal cells were cultured by shaking (200 rpm) at 30 °C. After incubation for 8 h, the fungal suspension was centrifuged (3000 rpm, 1 min), harvested and washed twice with distilled water carefully. The saponifying agent (6 ml of 15% NaOH resolved in 90% ethanol) was added to the precipitate. After 1 h of saponification at 80 °C, sterols were extracted with hexane (3 × 5 ml). The combined extracts were evaporated in a water bath and washed once with water. The residue was dried in a 60 °C water bath to obtain the total sterols. Finally, the total sterol was analysed by GC-MS and the structures of each sterol content were identified and compared with the National Institute of Standards and Technology (NIST) database.

[11] = in vitro; conditions: rabbit

Row | SMILES | MIC [1] [µg/mL] | MIC [2] [µg/mL] | MIC [3] [µg/mL] | MIC [4] [µg/mL] | MIC [5] [µg/mL] | MIC [6] [µg/mL] | MIC [7] [µg/mL] | MIC [8] [µg/mL] | MIC [9] [µg/mL] | MIC, C.alb 901 [7] [µg/mL] | proportion of 14α-methylfecosterol (of total sterols) [10] [%] | proportion of eburicol (of total sterols) [10] [%] | proportion of lanosterol (of total sterols) [10] [%] | proportion of obtusifoliol (of total sterols) [10] [%] | ergosterol content of the fungal cells (of total sterols) ([10]; control 89.85%) [%] | MIC, C. alb SC5314 [2] [µg/mL] | MIC, C. gla 537 [3] [µg/mL] | hemolysis at 1 h, 16 µg/mL [11] [%] | hemolysis at 1 h, 32 µg/mL [11] [%] | hemolysis at 1 h, 64 µg/mL [11] [%]
1 | Cc1cncc(CCC(=O)N[C@H](C)[C@](O)(Cn2cncn2)c2ccc(F)cc2F)c1 [A24] | 32 (≈ 77 µM) | 16 (≈ 38.5 µM) | 4 (≈ 9.63 µM) | 32 (≈ 77 µM) | > 64 | > 64 |  |  |  |  |  |  |  |  |  |  |  |  |  | 
2 | C[C@@H](NC(=O)CCc1ccc(F)c(F)c1)[C@](O)(Cn1cncn1)c1ccc(F)cc1F [A14] | 1 (≈ 2.29 µM) | ≤ 0.125 | ≤ 0.125 | 1 (≈ 2.29 µM) | 64 (≈ 147 µM) | 64 (≈ 147 µM) | 4 (≈ 9.17 µM) | > 64 | > 64 |  |  |  |  |  |  |  |  |  |  | 
3 | C[C@@H](NC(=O)CCc1cc(F)cc(F)c1)[C@](O)(Cn1cncn1)c1ccc(F)cc1F [A17] | 0.5 (≈ 1.15 µM) | ≤ 0.125 | ≤ 0.125 | 0.5 (≈ 1.15 µM) | 32 (≈ 73.3 µM) | 16 (≈ 36.7 µM) | 4 (≈ 9.17 µM) | > 64 | > 64 |  |  |  |  |  |  |  |  |  |  | 
4 | Cc1ccc(CCC(=O)N[C@H](C)[C@](O)(Cn2cncn2)c2ccc(F)cc2F)cn1 [A25] | 16 (≈ 38.5 µM) | 16 (≈ 38.5 µM) | 2 (≈ 4.81 µM) | 64 (≈ 154 µM) | > 64 | > 64 |  |  |  |  |  |  |  |  |  |  |  |  |  | 
5 | C[C@@H](NC(=O)CCc1ccccc1)[C@](O)(Cn1cncn1)c1ccc(F)cc1F [A1] | 0.25 (≈ 0.624 µM) | ≤ 0.125 | ≤ 0.125 | 0.5 (≈ 1.25 µM) | 64 (≈ 160 µM) | > 64 | 1 (≈ 2.5 µM) | 64 (≈ 160 µM) | 32 (≈ 79.9 µM) | 1.0 (≈ 2.5 µM) | 31.11 | 19.29 | 23.42 | 20.09 | 5.44 | ≤ 0.125 | ≤ 0.125 | 0.95 |  | 
6 | Cc1ccncc1CCC(=O)N[C@H](C)[C@](O)(Cn1cncn1)c1ccc(F)cc1F [A23] | 8 (≈ 19.3 µM) | 64 (≈ 154 µM) | 1 (≈ 2.41 µM) | 16 (≈ 38.5 µM) | > 64 | > 64 |  |  |  |  |  |  |  |  |  |  |  |  |  | 
7 | C[C@@H](NC(=O)CCc1ccc(Cl)c(Cl)c1)[C@](O)(Cn1cncn1)c1ccc(F)cc1F [A16] | ≤ 0.125 | ≤ 0.125 | ≤ 0.125 | 0.5 (≈ 1.07 µM) | 64 (≈ 136 µM) | 8 (≈ 17 µM) | 2 (≈ 4.26 µM) | > 64 | > 64 |  |  |  |  |  |  |  |  |  |  | 
8 | C[C@@H](NC(=O)CCc1ccc(Cl)c(F)c1)[C@](O)(Cn1cncn1)c1ccc(F)cc1F [A15] | 0.5 (≈ 1.1 µM) | ≤ 0.125 | ≤ 0.125 | 0.5 (≈ 1.1 µM) | 32 (≈ 70.7 µM) | 8 (≈ 17.7 µM) | 8 (≈ 17.7 µM) | 64 (≈ 141 µM) | 64 (≈ 141 µM) |  |  |  |  |  |  |  |  |  |  | 
9 | CC(=O)N1CCN(c2ccc(OCC3COC(Cn4ccnc4)(c4ccc(Cl)cc4Cl)O3)cc2)CC1 (stereo not drawn) [KCZ, ketoconazole, reference compound] | 0.125 (≈ 0.235 µM) | 4 (≈ 7.53 µM) | 1 (≈ 1.88 µM) | 0.5 (≈ 0.941 µM) | 4 (≈ 7.53 µM) | 16 (≈ 30.1 µM) |  |  |  |  |  |  |  |  |  |  |  |  |  | 
10 | Cc1ccnc(CCC(=O)N[C@H](C)[C@](O)(Cn2cncn2)c2ccc(F)cc2F)c1 [A20] | 4 (≈ 9.63 µM) | 1 (≈ 2.41 µM) | 2 (≈ 4.81 µM) | 4 (≈ 9.63 µM) | > 64 | > 64 |  |  |  |  |  |  |  |  |  |  |  |  |  | 
11 | Cc1cccnc1CCC(=O)N[C@H](C)[C@](O)(Cn1cncn1)c1ccc(F)cc1F [A19] | 2 (≈ 4.81 µM) | 1 (≈ 2.41 µM) | 1 (≈ 2.41 µM) | 2 (≈ 4.81 µM) | > 64 | > 64 |  |  |  |  |  |  |  |  |  |  |  |  |  | 
12 | C[C@@H]1[C@H](O)[C@@H](C)/C=C/C=C/C=C/C=C/C=C/C=C/C=C/[C@H](O[C@@H]2O[C@H](C)[C@@H](O)[C@H](N)[C@@H]2O)C[C@@H]2O[C@](O)(C[C@@H](O)C[C@@H](O)[C@H](O)CC[C@@H](O)C[C@@H](O)CC(=O)O[C@H]1C)C[C@H](O)[C@H]2C(=O)O [AmB, amphotericin B] |  |  |  |  |  |  |  |  |  |  |  |  |  |  |  |  |  | 4.87 | 57.7 | 100
13 | CC(=O)c1ccc(CCC(=O)N[C@H](C)[C@](O)(Cn2cncn2)c2ccc(F)cc2F)cc1 [A11] | 1 (≈ 2.26 µM) | 2 (≈ 4.52 µM) | 1 (≈ 2.26 µM) | 4 (≈ 9.04 µM) | > 64 | > 64 |  |  |  |  |  |  |  |  |  |  |  |  |  | 
14 | Cc1ccc(CCC(=O)N[C@H](C)[C@](O)(Cn2cncn2)c2ccc(F)cc2F)nc1 [A21] | 4 (≈ 9.63 µM) | 2 (≈ 4.81 µM) | 2 (≈ 4.81 µM) | 4 (≈ 9.63 µM) | > 64 | > 64 |  |  |  |  |  |  |  |  |  |  |  |  |  | 
